Assay results as given in US20180311191A1, “NEW COMBINATION THERAPIES FOR TREATING NEUROLOGICAL DAMAGE” (UNIVERSITAT AUTONOMA DE BARCELONA, priority 2015, published 2018).
Like-named read-outs stand apart in the source and are kept apart here.

Columns and labels:
motoneurons (MNs) [1] = experiment: Rat model of peripheral nerve root avulsion (RA model): MN counts and immunohistochemistry at L4-L5 spinal cord; assay type: in vivo; conditions: for effect on the neuroprotective effect (MN survival) exerted by C1: RA-injured animals treated with C1 concomitantly
Source text: For in vivo studies, a pre-clinical rat model of peripheral nerve root avulsion (RA model) was generated as previously described (see Penas C Cytoskeletal and activity-related changes in spinal motoneurons after root avulsion. Journal of Neurotrauma, 2009). Briefly, a midline skin incision was made at the level of the iliac crest, the right sciatic nerve was identified and the L4 and L5 spinal nerves were separated. A moderate traction was applied to produce extravertebral nerve root avulsion, leading to a retrograde degeneration of around 80% of the injured MNs within a month. The left roots were kept intact as control sham. We intratechally administered the vehicle (artificial cerebrospinal fluid (aCSF) [NaCl (124 mM), KCl (3 mM), NaHCO3 (26 mM), CaCl2/2H2O (2 mM), MgSO4/7H2O (1 mM), KH2PO4 (1.25 mM) and D-Glucose (10 mM)] or the positive control drug for neuroprotection (PRE084, 1-phenylcyclohexanecarboxylate hydrochloride, 1.7 μg/kg/day), C1 (Acamprosate calcium 96 μg/Kg/day (equivalent to 86.9 μg/Kg/day acamprosate free acid)+Ribavirin 0.48 μg/Kg/day) or acamprosate calcium (96 μg/Kg/day) (equivalent to 86.9 μg/Kg/day acamprosate free acid) alone and ribavirin (0.48 μg/Kg/day) alone. For this purpose, we used a programmable micro-infusion pump system (iPrecio, Primetech) to continuously perfuse the drugs into the animal CSF during 20 days from the following day after RA. […] experimental animal groups with RA were defined: one was treated with C1, another was treated with Pre084 (positive control), another was treated with Acamprosate calcium alone (A), another was treated with Ribavirin alone (B), another was treated with vehicle alone, another was left untreated (control). […] Images from microscope were digitally captured and analyzed using several plugins of the ImageJ Software.

motoneurons (MNs) [2] = conditions: cited from earlier work
[3] = system: NSC-34 motoneuron-like cells; experiment: MTT cell survival assay of NSC-34 motoneuron-like cells under tunicamycin-induced ER stress; assay type: cell-based, mouse; conditions: for MTT assay (% sample vs control), Mean: concomitant TN 1 μg/mL, 24 h, C1 = 0.11 mM acamprosate calcium + 4 μM ribavirin, single drugs 0.11 mM acamprosate calcium, 4 μM ribavirin, 10 μM PRE084; for Corrected Response (Response less control 62.956%) / Response (% neuronal cell survival after ER stress): tunicamycin, MTT
Description: For the in vitro studies, we assessed cell survival of the NSC-34 motoneuron-like cells with a conventional MTT-based assay. NSC-34 is a hybrid cell line produced by fusion of neuroblastoma with mouse motoneuron-enriched primary spinal cord cells, which express properties characteristic of MNs, including the generation of action potentials, the presence of specific neurofilaments and acetylcholine signaling. […] Tunicamycin is a power that was dissolved in DMSO to 10 mg/ml final concentration and then diluted in Dulbeco's modified eagle medium (DMEM) medium at the final working solution indicated in figure legends. The rest of drugs, C1, Acamprosate calcium and Ribavirin were dissolved in water and then in DMEM medium at the final working solutions: 0.11 mM Acamprosate calcium (ACA), 4 μM Ribavirin (RIB) alone or in C1, at a final volume of 100 μI for MTT assays.
We assessed the neuroprotective effect of C1 (acamprosate calcium 0.11 mM+ribavirin 4 μM in 100 μl final volume) when added simultaneous to tunicamycin (TN) in the culture medium. We evaluated cell survival 24 h after the addition of toxin and therapeutic drugs performing an MTT conventional test.
In order to analyze the existence of possible additive neuroprotective effect between drugs, we determined the dose-effect relations of each individual drug (Acamprosate calcium 0.11 mM or Ribavirin 4 μM, both in 100 μI final volume) compared to equivalent doses for C1 (acamprosate calcium 0.11 mM+ribavirin 4 μM in 100 μI final volume).

[4] = acamprosate calcium alone, Dose DA 0.1X (1X = 0.11 mM)
[5] = acamprosate calcium alone, Dose DA 0.2X (1X = 0.11 mM)
[6] = acamprosate calcium alone, Dose DA 0.5X (1X = 0.11 mM)
[7] = acamprosate calcium alone, Dose DA 1X (0.11 mM)
[8] = ribavirin alone, Dose DB 0.1X (1X = 4 μM)
[9] = ribavirin alone, Dose DB 0.2X (1X = 4 μM)
[10] = ribavirin alone, Dose DB 0.5X (1X = 4 μM)
[11] = ribavirin alone, Dose DB 1X (4 μM)

## NCCCCNCCCN [spermidine]
Motoneurons (MNs) [1]
  effect on the neuroprotective effect (MN survival) exerted by C1: did maintain it

## Nc1nc2ccc(OC(F)(F)F)cc2s1 [riluzole]
Motoneurons (MNs) [2]; model of spinal root avulsion with reimplantation
  neuroprotective effect: maximum observed effect of neuroprotection
Motoneurons (MNs) [2]; models of root avulsion without reimplantation (Chew 2014)
  neuroprotective effect: no neuroprotective effect

## CC(=O)NCCCS(=O)(=O)O [acamprosate calcium, 3-acetamidopropane-1-sulfonic acid]
[3]; NSC-34 cells
  MTT assay (% sample vs control), Mean: 65.80%
[3]; [4]
  Corrected Response (Response less control 62.956%): 3.52%
  Response (% neuronal cell survival after ER stress): 66.475%
[3]; [5]
  Corrected Response (Response less control 62.956%): 2.96%
  Response (% neuronal cell survival after ER stress): 65.918%
[3]; [6]
  Corrected Response (Response less control 62.956%): 3.89%
  Response (% neuronal cell survival after ER stress): 66.849%
[3]; [7]
  Corrected Response (Response less control 62.956%): 2.46%
  Response (% neuronal cell survival after ER stress): 65.417%

## NC(=O)c1ncn([C@@H]2O[C@H](CO)[C@@H](O)[C@H]2O)n1 [ribavirin, 1-[(2R,3R,4S,5R)-3,4-dihydroxy-5-(hydroxymethyl)oxolan-2-yl]-1H-1,2,4-triazole-3-carboxamide]
[3]; NSC-34 cells
  MTT assay (% sample vs control), Mean: 68.07%
[3]; [8]
  Corrected Response (Response less control 62.956%): 5.71%
  Response (% neuronal cell survival after ER stress): 68.662%
[3]; [9]
  Corrected Response (Response less control 62.956%): 7.93%
  Response (% neuronal cell survival after ER stress): 70.886%
[3]; [10]
  Corrected Response (Response less control 62.956%): 2.72%
  Response (% neuronal cell survival after ER stress): 65.676%
[3]; [11]
  Corrected Response (Response less control 62.956%): 5.69%
  Response (% neuronal cell survival after ER stress): 68.647%

## NC(=O)C1CCCc2c1[nH]c1ccc(Cl)cc21 (centres unmarked) [EX-527, 6-chloro-2,3,4,9-tetrahydro-1H-carbazole-1-carboxamide]
Motoneurons (MNs) [1]
  effect on the neuroprotective effect (MN survival) exerted by C1: abolished the neuroprotective effect

## O=C(OCCN1CCOCC1)C1(c2ccccc2)CCCCC1 [PRE084, 2-(4-Morpholinethyl)1 Phenylcyclohexanecarboxylate]
[3]; NSC-34 cells, TN 1 μg/mL, 10 μM PRE084, MTT
  neuroprotection against TN stress compared with C1: did not neuroprotect the cells as efficiently as C1
[3]; NSC-34 cells
  MTT assay (% sample vs control), Mean: 68.81%
Motoneurons (MNs) [1]; root avulsed rats, intrathecal infusion 20 days, 21 days post-injury, C1 = 96 μg/Kg/day acamprosate calcium + 0.48 μg/Kg/day ribavirin, PRE084 1.7 μg/kg/day
  MN survival compared to the vehicle group: significantly different to the vehicle group
Motoneurons (MNs) [2]; spinal root avulsion (Penas et al. 2011)
  induction of MN survival: 50-60%
